The values below come from paper PMC3961306, “Comparison of the Cancer Gene Targeting and Biochemical Selectivities of All Targeted Kinase Inhibitors Approved for Clinical Use” (PLoS ONE, 2014).

Test in all cases: Kinase profiling in a biochemical assay panel (mobility shift assays and ELISA), %-inhibition at 1 μM; selectivity entropy
A general note: An ELISA detects its analyte on a solid surface through an enzyme-linked reagent.

The target of experiment [1] is T1, panel of more than 300 wild-type and mutant kinases (313 kinase panel) (Homo sapiens, UniProt P45985).
T1 sequence (P45985 1-399): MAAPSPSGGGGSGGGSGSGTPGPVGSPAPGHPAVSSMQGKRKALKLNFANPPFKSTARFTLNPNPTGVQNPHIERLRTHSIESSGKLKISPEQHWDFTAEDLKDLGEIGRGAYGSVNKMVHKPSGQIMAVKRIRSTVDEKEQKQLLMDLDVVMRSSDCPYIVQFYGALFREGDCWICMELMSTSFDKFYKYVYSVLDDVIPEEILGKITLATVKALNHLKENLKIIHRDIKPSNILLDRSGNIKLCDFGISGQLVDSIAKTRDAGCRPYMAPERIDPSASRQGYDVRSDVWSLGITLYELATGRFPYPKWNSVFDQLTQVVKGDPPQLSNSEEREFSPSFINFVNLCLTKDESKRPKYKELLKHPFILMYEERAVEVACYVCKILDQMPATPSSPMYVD
To be noted: kinase MAP2K4; compound at 1 μM.

The target of experiment [2] is panel of more than 300 wild-type and mutant kinases (313 kinase panel) (Homo sapiens, UniProt P22694).
For experiment [3], the target named is T2, panel of more than 300 wild-type and mutant kinases (313 kinase panel) (Homo sapiens, UniProt P51955).
T2 sequence (P51955 1-445): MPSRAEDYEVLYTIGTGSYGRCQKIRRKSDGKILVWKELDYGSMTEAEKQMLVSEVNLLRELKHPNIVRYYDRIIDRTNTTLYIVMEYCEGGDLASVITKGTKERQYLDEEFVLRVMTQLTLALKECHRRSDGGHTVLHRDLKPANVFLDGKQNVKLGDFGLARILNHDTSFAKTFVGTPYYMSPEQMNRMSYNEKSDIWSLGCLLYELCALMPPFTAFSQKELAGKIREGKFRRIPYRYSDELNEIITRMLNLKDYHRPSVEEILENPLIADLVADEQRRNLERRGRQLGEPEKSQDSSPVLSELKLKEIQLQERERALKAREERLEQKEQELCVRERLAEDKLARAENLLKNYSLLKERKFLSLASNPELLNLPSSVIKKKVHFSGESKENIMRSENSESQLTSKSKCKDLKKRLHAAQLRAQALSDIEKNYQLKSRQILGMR
The settings on record: kinase NEK2; 1 μM.

The target in experiment [4] is T3, panel of more than 300 wild-type and mutant kinases (313 kinase panel) (Homo sapiens, UniProt Q96KB5).
T3 sequence (Q96KB5 1-322): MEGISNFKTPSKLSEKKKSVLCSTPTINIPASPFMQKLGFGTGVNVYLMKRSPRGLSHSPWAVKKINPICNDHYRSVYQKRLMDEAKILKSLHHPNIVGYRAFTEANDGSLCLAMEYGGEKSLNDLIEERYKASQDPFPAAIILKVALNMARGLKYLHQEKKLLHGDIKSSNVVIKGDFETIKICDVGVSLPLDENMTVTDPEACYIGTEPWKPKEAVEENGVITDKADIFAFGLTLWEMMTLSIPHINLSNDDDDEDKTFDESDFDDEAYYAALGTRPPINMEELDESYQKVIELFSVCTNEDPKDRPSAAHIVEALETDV
The settings on record: kinase PBK; 1 μM.

For experiment [5], the target named is panel of more than 300 wild-type and mutant kinases (313 kinase panel) (Homo sapiens, UniProt P57059). To be noted: kinase SIK; 1 μM.
The target of experiment [6] is panel of more than 300 wild-type and mutant kinases (313 kinase panel) (Homo sapiens, UniProt P19525).
Experiment [7] addresses panel of more than 300 wild-type and mutant kinases (313 kinase panel) (Homo sapiens, UniProt Q9H2G2).
Experiment [8] has as its target panel of more than 300 wild-type and mutant kinases (313 kinase panel) (Homo sapiens, UniProt Q15375). To be noted: kinase EPHA7; compound at 1 μM.

Chain of panel of more than 300 wild-type and mutant kinases (313 kinase panel) (Homo sapiens, UniProt Q15375) (Q15375 28-998, change not shown): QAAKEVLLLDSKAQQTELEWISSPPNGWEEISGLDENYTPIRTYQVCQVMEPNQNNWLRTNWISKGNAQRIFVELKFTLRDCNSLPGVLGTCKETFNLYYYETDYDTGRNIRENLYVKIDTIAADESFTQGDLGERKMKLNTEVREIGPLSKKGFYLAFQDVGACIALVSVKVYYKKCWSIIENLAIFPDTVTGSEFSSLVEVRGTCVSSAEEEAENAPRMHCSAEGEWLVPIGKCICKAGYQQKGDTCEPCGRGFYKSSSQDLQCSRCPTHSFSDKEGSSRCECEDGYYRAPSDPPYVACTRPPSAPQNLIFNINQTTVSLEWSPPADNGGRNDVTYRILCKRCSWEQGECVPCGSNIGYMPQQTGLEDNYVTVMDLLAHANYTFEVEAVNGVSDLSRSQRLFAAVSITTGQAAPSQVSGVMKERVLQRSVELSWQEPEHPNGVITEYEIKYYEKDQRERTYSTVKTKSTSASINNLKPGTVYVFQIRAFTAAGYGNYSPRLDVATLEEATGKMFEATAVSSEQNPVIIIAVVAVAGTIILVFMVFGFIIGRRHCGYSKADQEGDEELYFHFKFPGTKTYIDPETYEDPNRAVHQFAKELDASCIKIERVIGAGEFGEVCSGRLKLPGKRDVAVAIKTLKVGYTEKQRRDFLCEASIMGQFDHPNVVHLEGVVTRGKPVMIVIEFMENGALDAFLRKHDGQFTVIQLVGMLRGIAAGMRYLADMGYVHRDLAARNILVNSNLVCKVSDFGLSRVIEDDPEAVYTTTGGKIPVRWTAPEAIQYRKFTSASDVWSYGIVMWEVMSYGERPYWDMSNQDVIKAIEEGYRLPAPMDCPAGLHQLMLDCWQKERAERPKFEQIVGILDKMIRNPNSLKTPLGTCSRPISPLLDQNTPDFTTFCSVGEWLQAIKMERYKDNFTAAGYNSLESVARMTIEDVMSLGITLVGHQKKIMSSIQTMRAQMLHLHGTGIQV

Take `CO[C@H]1C[C@@H]2CC[C@@H](C)[C@@](O)(O2)C(=O)C(=O)N2CCCC[C@H]2C(=O)O[C@H]([C@H](C)C[C@@H]2CC[C@@H](OC(=O)C(C)(CO)CO)[C@H](OC)C2)CC(=O)[C@H](C)/C=C(\C)[C@@H](O)[C@@H](OC)C(=O)[C@H](C)C[C@H](C)/C=C/C=C/C=C/1C` [temsirolimus]: the “%-inhibition of MAP2K4” value in experiment [1] is reported as 8.51%. The “%-inhibition of PKACβ” value in experiment [2] (kinase PKACβ, 1 μM) was -6%. For the same compound, in experiment [3], the “%-inhibition of NEK2” value was -5%. In addition, the “%-inhibition of PBK” value in experiment [4] was -9%. In addition, the “%-inhibition of SIK” value in experiment [5] is recorded as -5.28%. Besides, the “%-inhibition of PKR” value in experiment [6] (kinase PKR, 1 μM) is listed as -14%. Also, the “%-inhibition of SLK” value in experiment [7] (kinase SLK, 1 μM) is -4%. Also, the “%-inhibition of EPHA7” value in experiment [8] is listed as -6%.

Consider `Cc1cn(-c2cc(NC(=O)c3ccc(C)c(Nc4nccc(-c5cccnc5)n4)c3)cc(C(F)(F)F)c2)cn1` [nilotinib], for which, in experiment [1], the “%-inhibition of MAP2K4” value was -4.54%. Moreover, in experiment [2] (1 µM), the “%-inhibition of PKACβ” value is on record as 28%. Further, in experiment [3], the “%-inhibition of NEK2” value is -19%. The “%-inhibition of PBK” value in experiment [4] is reported as -8%. The “%-inhibition of SIK” value in experiment [5] is recorded as -25%. Further, in experiment [6] (1 µM), the “%-inhibition of PKR” value is on record as 0%. Besides, the “%-inhibition of SLK” value in experiment [7] (kinase SLK, 1 μM) was -41%. The “%-inhibition of EPHA7” value in experiment [8] was determined as 19%.

On to `CS(=O)(=O)CCNCc1ccc(-c2ccc3ncnc(Nc4ccc(OCc5cccc(F)c5)c(Cl)c4)c3c2)o1` [lapatinib], for which, in experiment [1], the “%-inhibition of MAP2K4” value stood at 0.409%. In experiment [2] (kinase PKACβ, 1 μM), the “%-inhibition of PKACβ” value is -3%. Further, in experiment [3], the “%-inhibition of NEK2” value is -3.7%. Besides, the “%-inhibition of PBK” value in experiment [4] came to 6%. Besides, in experiment [5], the “%-inhibition of SIK” value is given as -7%. Moreover, the “%-inhibition of PKR” value in experiment [6] (kinase PKR, 1 μM) was -0.192%. Moreover, the “%-inhibition of SLK” value in experiment [7] (1 µM) was 10%. Also, the “%-inhibition of EPHA7” value in experiment [8] came to 6.56%.
